From patent US11760722B2 (priority 2022, dated 2023)
Where “and” joins values, the source holds several entries; their conditions need not be identical. Equal values may be shown once. Read-outs that look alike come from different tables or passages of the source.

Experiments:
SARS-CoV-2 replicon = test: microbe, parasite or virus in culture; format: cell-based; conditions: read-out: Replicon EC50
COVID-19 WT Mpro = target: T1, COVID-19 WT Mpro (Severe acute respiratory syndrome coronavirus 2, UniProt P0DTD1); test: biochemical; conditions: WT Mpro 25 nM, substrate 25 μM, 30 min pre-incubation; several values in a cell = repeat determinations
T1 construct: The C-His6-tagged COVID-19 WT Mpro (NC_045512); His6 (C); host or cells: E. coli

[1] = test system: human coronavirus (HCoV) 229E; test: microbe, parasite or virus in culture; format: cell-based, human coronavirus 229E; conditions: unidentified human coronavirus, 72 h, MRCS cells, HCoV 229E, 3 days, CellTiter Glo; read-out: 229E CPE EC50
[2] = Severe acute respiratory syndrome coronavirus 2, Huh-7, 24 h

SMILES | EC50 (SARS-CoV-2 replicon; [2]) [µM] | IC50 (COVID-19 WT Mpro) | EC50 (SARS-CoV-2 replicon) [µM] | EC50 [1] [µM]
CC1(C)[C@@H]2[C@@H](C(=O)N[C@H](C#N)C[C@@H]3CCNC3=O)N(C(=O)[C@@H]3CCN3C(=O)C(F)(F)F)C[C@@H]21 [Compound 6] | > 30 | 17.3 µM |  | 
CC1(C)[C@@H]2[C@@H](C(=O)N[C@H](C#N)C[C@@H]3CCNC3=O)N(C(=O)[C@@H](NC(=O)C(F)(F)F)C34CC(C3)C4)C[C@@H]21 [Compound 50] | 0.27 | 0.06 µM |  | 
CC(C)(C)[C@H](NC(=O)N1CCCCC1)C(=O)N1C[C@H]2[C@@H]([C@H]1C(=O)N[C@H](C#N)C[C@@H]1CCNC1=O)C2(C)C [Compound 55] | 6.04 | 1.05 µM |  | 
CC(C)(C)[C@H](NC(=O)[C@@H](NC(=O)c1cnccn1)C1CCCCC1)C(=O)N1C[C@H]2[C@@H]([C@H]1C(=O)N[C@H](C#N)C[C@@H]1CCNC1=O)C2(C)C [Compound 13] | 1.63 | 0.066 µM and 0.256 µM | 1.93 | 9.81
CC(C)(C)[C@H](NC(=O)C1CC2CCC(C1)O2)C(=O)N1C[C@H]2[C@@H]([C@H]1C(=O)N[C@H](C#N)C[C@@H]1CCNC1=O)C2(C)C (some centres unmarked) [Compound 19] | > 30 | 3.71 µM |  | > 30
CC(C)(C)OC(=O)N1c2ccccc2CC1C(=O)N[C@H](C(=O)N1C[C@H]2[C@@H]([C@H]1C(=O)N[C@H](C#N)C[C@@H]1CCNC1=O)C2(C)C)C(C)(C)C (some centres unmarked) [Compound 36] | 2.75 | 0.617 µM |  | 15.6
CC(C)(C)[C@H](NC(=O)C1COC1)C(=O)N1C[C@H]2[C@@H]([C@H]1C(=O)N[C@H](C#N)C[C@@H]1CCNC1=O)C2(C)C [Compound 21] | > 30 | 0.161 µM |  | > 30
CC(C)(C)[C@H](NC(=O)c1ccc2cc[nH]c2c1)C(=O)N1C[C@H]2[C@@H]([C@H]1C(=O)N[C@H](C#N)C[C@@H]1CCNC1=O)C2(C)C [Compound 42] | 2.48 | 0.121 µM |  | 
CN(C(=O)OC(C)(C)C)C(C)(C)C(=O)N[C@H](C(=O)N1C[C@H]2[C@@H]([C@H]1C(=O)N[C@H](C#N)C[C@@H]1CCNC1=O)C2(C)C)C(C)(C)C [Compound 38] | > 30 | 9.82 µM |  | > 30
CC1(C)[C@@H]2[C@@H](C(=O)N[C@@H](C[C@@H]3CCNC3=O)C(=O)c3nc4ccccc4s3)N(C(=O)[C@@H]3CCN3C(=O)C(F)(F)F)C[C@@H]21 [Compound 11] | 25.5 | 11 µM |  | 
COC(C)(C)C(=O)N[C@H](C(=O)N1C[C@H]2[C@@H]([C@H]1C(=O)N[C@H](C#N)C[C@@H]1CCNC1=O)C2(C)C)C(C)(C)C [Compound 25] | 2.35 | 0.161 µM |  | 2.47
CC1(C)[C@@H]2[C@@H](C(=O)N[C@H](C#N)C[C@@H]3CCNC3=O)N(C(=O)[C@@H]3CCCN3C(=O)C(F)(F)F)C[C@@H]21 [Compound 5] | > 30 | > 30 µM |  | 
CC(C)(C)OC(=O)N1[C@@H](C(=O)N[C@H](C(=O)N2C[C@H]3[C@@H]([C@H]2C(=O)N[C@H](C#N)C[C@@H]2CCNC2=O)C3(C)C)C(C)(C)C)C[C@H]2CCCC[C@H]21 [Compound 37] | 4.49 | 2.15 µM |  | > 30
CC(C)(C)[C@H](NC(=O)c1cc2ccccn2n1)C(=O)N1C[C@H]2[C@@H]([C@H]1C(=O)N[C@H](C#N)C[C@@H]1CCNC1=O)C2(C)C [Compound 51] | 9.54 | 9.4 µM |  | 
CC(C)(C)[C@H](NC(=O)c1cc2ccccc2[nH]1)C(=O)N1C[C@H]2[C@@H]([C@H]1C(=O)N[C@H](C#N)C[C@@H]1CCNC1=O)C2(C)C [Compound 28] | 2.05 | 0.728 µM |  | 6.12
CC(C)(C)[C@H](NC(=O)N1CCOCC1)C(=O)N1C[C@H]2[C@@H]([C@H]1C(=O)N[C@H](C#N)C[C@@H]1CCNC1=O)C2(C)C [Compound 48] | 22 | 0.224 µM |  | 
CC(C)(C)OC(=O)N1C2CCC1CC(C(=O)N[C@H](C(=O)N1C[C@H]3[C@@H]([C@H]1C(=O)N[C@H](C#N)C[C@@H]1CCNC1=O)C3(C)C)C(C)(C)C)C2 (some centres unmarked) [Compound 17] | 2.64 | 0.704 µM |  | 7.96
CC(C)(C)[C@H](NC(=O)c1cn2ccccc2n1)C(=O)N1C[C@H]2[C@@H]([C@H]1C(=O)N[C@H](C#N)C[C@@H]1CCNC1=O)C2(C)C [Compound 31] | 22.2 | 2.75 µM |  | > 30
CC(C)(C)OC(=O)N1CCCC1(C)C(=O)N[C@H](C(=O)N1C[C@H]2[C@@H]([C@H]1C(=O)N[C@H](C#N)C[C@@H]1CCNC1=O)C2(C)C)C(C)(C)C (some centres unmarked) [Compound 57] | 0.4 | 0.057 µM |  | 

SMILES | EC50 (SARS-CoV-2 replicon; [2]) [µM] | IC50 (COVID-19 WT Mpro) | EC50 (SARS-CoV-2 replicon) [µM] | EC50 [1] [µM]
COC(=O)N(C(=O)C(F)(F)F)[C@H](C(=O)N1C[C@H]2[C@@H]([C@H]1C(=O)N[C@H](C#N)C[C@@H]1CCNC1=O)C2(C)C)C(C)(C)C [Compound 8] | 3.11 | > 30 µM |  | 
CC(C)(C)[C@H](NC(=O)c1ccc2cncn2c1)C(=O)N1C[C@H]2[C@@H]([C@H]1C(=O)N[C@H](C#N)C[C@@H]1CCNC1=O)C2(C)C [Compound 29] | > 30 | 0.405 µM |  | > 30
CC(C)(C)[C@H](NC(=O)c1ccc2[nH]ncc2c1)C(=O)N1C[C@H]2[C@@H]([C@H]1C(=O)N[C@H](C#N)C[C@@H]1CCNC1=O)C2(C)C [Compound 24] | 3.61 | 0.143 µM |  | 23.4
CN(C)C(=O)N[C@H](C(=O)N1C[C@H]2[C@@H]([C@H]1C(=O)N[C@H](C#N)C[C@@H]1CCNC1=O)C2(C)C)C(C)(C)C [Compound 39, (1R,2S,5S)—N—((S)-1-cyano-2-((S)-2-oxopyrrolidin-3-yl)ethyl)-3-((S)-2-(3,3-dimethylureido)-3,3-dimethylbutanoyl)-6,6-dimethyl-3-azabicyclo[3.1.0]hexane-2-carboxamide] | 17.6 | 0.421 µM |  | > 30
CC(C)(C)[C@H](NC(=O)c1c(F)c(F)c(F)c(F)c1F)C(=O)N1C[C@H]2[C@@H]([C@H]1C(=O)N[C@H](C#N)C[C@@H]1CCNC1=O)C2(C)C [Compound 30] | 3.56 | 0.714 µM |  | 1.8
CC(C)(C)[C@H](NC(=O)[C@H](NC(=O)c1cnccn1)C1CCCCC1)C(=O)N1C[C@H]2[C@@H]([C@H]1C(=O)N[C@H](C#N)C[C@@H]1CCNC1=O)C2(C)C [Compound 14] | > 30 | > 30 µM |  | 
CC(C)(C)[C@H](NC(=O)C(F)(F)F)C(=O)N1C[C@H]2[C@@H]([C@H]1C(=O)N[C@H](C#N)Cc1cncnc1)C2(C)C [Compound 15] | > 30 | > 30 µM |  | 
CC(C)(C)[C@H](NC(=O)[C@H]1C[C@H]2CCCC[C@H]2N1)C(=O)N1C[C@H]2[C@@H]([C@H]1C(=O)N[C@H](C#N)C[C@@H]1CCNC1=O)C2(C)C [Compound 46] | > 30 | 7.5 µM |  | 
CC(C)(C)[C@H](NC(=S)NC1CCCCC1)C(=O)N1C[C@H]2[C@@H]([C@H]1C(=O)N[C@H](C#N)C[C@@H]1CCNC1=O)C2(C)C [Compound 43] | 3.21 | 1.23 µM |  | 
CC(C)(C)[C@H](NC(=O)C1Cc2ccccc2N1)C(=O)N1C[C@H]2[C@@H]([C@H]1C(=O)N[C@H](C#N)C[C@@H]1CCNC1=O)C2(C)C (some centres unmarked) [Compound 45] | 0.96 | 0.385 µM |  | 
CC(C)(C)[C@H](NC(=O)C12CC(C(F)(F)F)(C1)C2)C(=O)N1C[C@H]2[C@@H]([C@H]1C(=O)N[C@H](C#N)C[C@@H]1CCNC1=O)C2(C)C [Compound 81] | 1.99 |  |  | 6.86
CC1(C)[C@@H]2[C@@H](C(=O)N[C@@H](C[C@@H]3CCNC3=O)C(=O)c3nc4ccccc4s3)N(C(=O)[C@@H]3CCCN3C(=O)C(F)(F)F)C[C@@H]21 [Compound 10] | 22.7 | > 30 µM |  | 
CC(C)(C)[C@H](NC(=O)c1ccccn1)C(=O)N1C[C@H]2[C@@H]([C@H]1C(=O)N[C@H](C#N)C[C@@H]1CCNC1=O)C2(C)C [Compound 107] | 3.77 |  |  | 23.3
CC(C)(C)[C@H](NC(=O)CCC(F)(F)F)C(=O)N1C[C@H]2[C@@H]([C@H]1C(=O)N[C@H](C#N)C[C@@H]1CCNC1=O)C2(C)C [Compound 138] | 0.33 |  | 0.5 | 0.622
C=C(C(=O)N[C@H](C(=O)N1C[C@H]2[C@@H]([C@H]1C(=O)N[C@H](C#N)C[C@@H]1CCNC1=O)C2(C)C)C(C)(C)C)C(F)(F)F [Compound 92] | 1.76 |  |  | 17.1
CCc1ccc(S(=O)(=O)N[C@H](C(=O)N2C[C@H]3[C@@H]([C@H]2C(=O)N[C@H](C#N)C[C@@H]2CCNC2=O)C3(C)C)C(C)(C)C)s1 [Compound 170] | 0.038 |  |  | 0.14
CC(C)(C)[C@H](NC(=O)C1(CS(=O)(=O)C(C)(C)C)CCCCC1)C(=O)N1C[C@H]2[C@@H]([C@H]1C(=O)N[C@H](C#N)C[C@@H]1CCNC1=O)C2(C)C [Compound 115] | 3 |  |  | > 30
CC(C)(C)[C@H](NC(=S)N1CCCCC1)C(=O)N1C[C@H]2[C@@H]([C@H]1C(=O)N[C@H](C#N)C[C@@H]1CCNC1=O)C2(C)C [Compound 109] | 0.875 |  |  | 0.985
COC(=O)NS(=O)(=O)N[C@H](C(=O)N1C[C@H]2[C@@H]([C@H]1C(=O)N[C@H](C#N)C[C@@H]1CCNC1=O)C2(C)C)C(C)(C)C [Compound 97] | > 10 |  |  | > 30
